System: NCI/ADR-RES complex spheroid viability
Experiment: Anticancer human tumor NCI/ADR-RES cell line growth inhibition;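 also: spheroids exposed to compounds for 7 days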;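 as to viability, T/C: 100% = DMSO vehicle treated spheroids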
Details: for IC50: curve of first compound; for viability, T/C: stronger effect = lower value
Summary of the method: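 Multicellular complex spheroids of tumor cells with human endothelial cells (HUVEC) and mesenchymal stem cells; the LSD1 inhibitor iadademstat was combined with standard-of-care or investigational agents. Top concentration at or near clinical Cmax, half-log dilutions; final DMSO ≤0.25%.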

[1] = second compound 0.1 µM, first compound 0.0316 µM
[2] = second compound 0.1 µM, first compound 0.1 µM
[3] = second compound 0.1 µM, first compound 0.316 µM
[4] = second compound 0.1 µM, first compound 1 µM
[5] = second compound 0.1 µM, first compound 3.16 µM
[6] = second compound 0.1 µM, first compound 10 µM
[7] = second compound 0.316 µM, first compound 0.0316 µM
[8] = second compound 0.316 µM, first compound 0.1 µM
[9] = second compound 0.316 µM, first compound 0.316 µM
[10] = second compound 0.316 µM, first compound 1 µM
[11] = second compound 0.316 µM, first compound 3.16 µM
[12] = second compound 0.316 µM, first compound 10 µM
[13] = second compound 1 µM, first compound 0.0316 µM
[14] = second compound 1 µM, first compound 0.1 µM
[15] = second compound 1 µM, first compound 0.316 µM
[16] = second compound 1 µM, first compound 1 µM
[17] = second compound 1 µM, first compound 3.16 µM
[18] = second compound 1 µM, first compound 10 µM
[19] = second compound 3.16 µM, first compound 0.0316 µM
[20] = second compound 3.16 µM, first compound 0.1 µM
[21] = second compound 3.16 µM, first compound 0.316 µM
[22] = second compound 3.16 µM, first compound 1 µM
[23] = second compound 3.16 µM, first compound 3.16 µM
[24] = second compound 3.16 µM, first compound 10 µM
[25] = second compound 10 µM, first compound 0.0316 µM
[26] = second compound 10 µM, first compound 0.1 µM
[27] = second compound 10 µM, first compound 0.316 µM
[28] = second compound 10 µM, first compound 1 µM
[29] = second compound 10 µM, first compound 3.16 µM
[30] = second compound 10 µM, first compound 10 µM

SMILES: CC1COCCN1c1cc(C2(S(C)(=N)=O)CC2)nc(-c2ccnc3[nH]ccc23)n1 (stereo not given) + NC1CC1c1ccc(-c2cccc(O)c2)cc1
- IC50 (second compound 0.1 µM): 7 µM
- IC50 (second compound 0.316 µM): 9.41 µM
- IC50 (second compound 1 µM): 6.18 µM
- IC50 (second compound 3.16 µM): 6.48 µM
- IC50 (second compound 10 µM): 5.36 µM
- viability, T/C [1]: 108%
- viability, T/C [2]: 108%
- viability, T/C [3]: 97.4%
- viability, T/C [4]: 90%
- viability, T/C [5]: 71.5%
- viability, T/C [6]: 40.4%
- viability, T/C [7]: 110%
- viability, T/C [8]: 104%
- viability, T/C [9]: 103%
- viability, T/C [10]: 91.8%
- viability, T/C [11]: 73.2%
- viability, T/C [12]: 48.7%
- viability, T/C [13]: 96.4%
- viability, T/C [14]: 97.4%
- viability, T/C [15]: 93.8%
- viability, T/C [16]: 90.1%
- viability, T/C [17]: 64.8%
- viability, T/C [18]: 39.4%
- viability, T/C [19]: 101%
- viability, T/C [20]: 95.1%
- viability, T/C [21]: 95.8%
- viability, T/C [22]: 86%
- viability, T/C [23]: 65.4%
- viability, T/C [24]: 40.6%
- viability, T/C [25]: 93.2%
- viability, T/C [26]: 94.1%
- viability, T/C [27]: 84.9%
- viability, T/C [28]: 71.6%
- viability, T/C [29]: 61.3%
- viability, T/C [30]: 38.5%

SMILES: O=C(c1cc(Cc2n[nH]c(=O)c3ccccc23)ccc1F)N1CCN(C(=O)C2CC2)CC1 + NC1CCC(NC2CC2c2ccccc2)CC1
- IC50 (second compound 0.1 µM): > 10 µM
- IC50 (second compound 0.316 µM): > 10 µM
- IC50 (second compound 1 µM): > 10 µM
- IC50 (second compound 3.16 µM): > 10 µM
- IC50 (second compound 10 µM): > 10 µM
- viability, T/C [1]: 99.8%
- viability, T/C [2]: 97.5%
- viability, T/C [3]: 104%
- viability, T/C [4]: 102%
- viability, T/C [5]: 102%
- viability, T/C [6]: 87.6%
- viability, T/C [7]: 109%
- viability, T/C [8]: 101%
- viability, T/C [9]: 105%
- viability, T/C [10]: 111%
- viability, T/C [11]: 96.2%
- viability, T/C [12]: 101%
- viability, T/C [13]: 100%
- viability, T/C [14]: 108%
- viability, T/C [15]: 112%
- viability, T/C [16]: 107%
- viability, T/C [17]: 105%
- viability, T/C [18]: 91.5%
- viability, T/C [19]: 99.1%
- viability, T/C [20]: 102%
- viability, T/C [21]: 97.4%
- viability, T/C [22]: 96%
- viability, T/C [23]: 104%
- viability, T/C [24]: 87.3%
- viability, T/C [25]: 94.8%
- viability, T/C [26]: 97.4%
- viability, T/C [27]: 93.1%
- viability, T/C [28]: 88.8%
- viability, T/C [29]: 92.5%
- viability, T/C [30]: 91.7%

SMILES: Nc1ncn(C2CC(O)C(CO)S2)c(=O)n1 (stereo not given) + NC1CCC(NC2CC2c2ccccc2)CC1
- IC50 (second compound 0.1 µM): 0.0175 µM
- IC50 (second compound 0.316 µM): 0.0126 µM
- IC50 (second compound 1 µM): 0.0139 µM
- IC50 (second compound 3.16 µM): 0.00887 µM
- IC50 (second compound 10 µM): 0.00646 µM
- viability, T/C (second compound 0.1 µM, first compound 0.000949 µM): 99.2%
- viability, T/C (second compound 0.1 µM, first compound 0.003 µM): 76.1%
- viability, T/C (second compound 0.1 µM, first compound 0.00949 µM): 60.2%
- viability, T/C (second compound 0.1 µM, first compound 0.03 µM): 41.5%
- viability, T/C (second compound 0.1 µM, first compound 0.0949 µM): 25.3%
- viability, T/C (second compound 0.1 µM, first compound 0.3 µM): 6.6%
- viability, T/C (second compound 0.316 µM, first compound 0.000949 µM): 106%
- viability, T/C (second compound 0.316 µM, first compound 0.003 µM): 79.3%
- viability, T/C (second compound 0.316 µM, first compound 0.00949 µM): 56.2%
- viability, T/C (second compound 0.316 µM, first compound 0.03 µM): 34%
- viability, T/C (second compound 0.316 µM, first compound 0.0949 µM): 17.1%
- viability, T/C (second compound 0.316 µM, first compound 0.3 µM): 6.79%
- viability, T/C (second compound 1 µM, first compound 0.000949 µM): 99.9%
- viability, T/C (second compound 1 µM, first compound 0.003 µM): 80.3%
- viability, T/C (second compound 1 µM, first compound 0.00949 µM): 57%
- viability, T/C (second compound 1 µM, first compound 0.03 µM): 35%
- viability, T/C (second compound 1 µM, first compound 0.0949 µM): 18.6%
- viability, T/C (second compound 1 µM, first compound 0.3 µM): 4.76%
- viability, T/C (second compound 3.16 µM, first compound 0.000949 µM): 102%
- viability, T/C (second compound 3.16 µM, first compound 0.003 µM): 66.1%
- viability, T/C (second compound 3.16 µM, first compound 0.00949 µM): 46.6%
- viability, T/C (second compound 3.16 µM, first compound 0.03 µM): 37.1%
- viability, T/C (second compound 3.16 µM, first compound 0.0949 µM): 17.7%
- viability, T/C (second compound 3.16 µM, first compound 0.3 µM): 4.6%
- viability, T/C (second compound 10 µM, first compound 0.000949 µM): 85.1%
- viability, T/C (second compound 10 µM, first compound 0.003 µM): 57.3%
- viability, T/C (second compound 10 µM, first compound 0.00949 µM): 43.7%
- viability, T/C (second compound 10 µM, first compound 0.03 µM): 31%
- viability, T/C (second compound 10 µM, first compound 0.0949 µM): 13.9%
- viability, T/C (second compound 10 µM, first compound 0.3 µM): 3.33%
